The supplement of paper PMC11208160

Assay: recombinant UMI read abundance after kanamycin selection (control-corrected) (log10(CPM+1)); higher = more efficient recombination; extreme values may be limits of the assay; sequences stand for … in AGTGCAGAGAAAATCGGCCAGTTTTCTCTGCCTGCAGTCCGCATGCCGTGGGACCCCTTGGGTTCTAACCTGTTGCCTAGATTTATGCAGCGGACTGCCTTTCTCCCAAAGTGATAAACCGG…AGGTTGGTTTCACT; site = the 11-nt donor
In short: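 In Escherichia coli, a pool of donor and donor-binding-loop pairs, each with a 12-nt UMI, was tested for the IS621 bridge recombinase. Plating was on IPTG (0.07 mM) plus kanamycin, or without selection, in two replicates. Recombinant UMIs were amplified by PCR across the donor–target junction and sequenced, and counts were reported as log10(CPM+1) after averaging and control-derived scaling.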
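Note: IS621 bridge recombinase in Escherichia coli cells against a fixed T5 target plasmid.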

Sequence | recombinant UMI read abundance (log10)
TGATCAACATGGACCGGTTTTCCCGGTAATCCGTATTTGCT (site TGATCAACTAG) | 0.879
TGATCATCATGGACCGGTTTTCCCGGTAATCCGTATTTGCT (site AGATCATCTAG) | 1.56
TGATCATCATGGACCGGTTTTCCCGGTAATCCGTATTTGCT (site CGATCATCTAG) | 1.63
TGATCATCATGGACCGGTTTTCCCGGTAATCCGTATTTGCT (site GGATCATCTAG) | 1.02
TGATCATCATGGACCGGTTTTCCCGGTAATCCGTATTTGCT (site TGATCATCTAG) | 0.945
TGATCCCCATGGACCGGTTTTCCCGGTAATCCGTATTTGTA (site TGATCCCCTTA) | 0.674
TGATCCCCATGGACCGGTTTTCCCGGTAATCCGTATTTGTA (site TGCTCCCCTTA) | 0.195
TGATCCCCATGGACCGGTTTTCCCGGTAATCCGTATTTGTA (site TGGTCCCCTTA) | 0.00213
TGATCCCCATGGACCGGTTTTCCCGGTAATCCGTATTTGTA (site TGTTCCCCTTA) | 0.28
TGATCCGCATGGACCGGTTTTCCCGGTAATCCGTATTTGCC (site TGATCCGCTGG) | 1.55
TGCAAACCATGGACCGGTTTTCCCGGTAATCCGTATTTGGG (site TGCAAACCTCC) | 0.00989
TGCAATCCATGGACCGGTTTTCCCGGTAATCCGTATTTGAA (site AGCAATCCTTT) | 0.00584
TGCAATCCATGGACCGGTTTTCCCGGTAATCCGTATTTGAA (site CGCAATCCTTT) | 0.257
TGCAATCCATGGACCGGTTTTCCCGGTAATCCGTATTTGAA (site GGCAATCCTTT) | 0.0354
TGCAATCCATGGACCGGTTTTCCCGGTAATCCGTATTTGAA (site TGCAATCCTTT) | 1.16
TGCACATCATGGACCGGTTTTCCCGGTAATCCGTATTTGCC (site TGCACATCTGG) | 0.35
TGCACCGCATGGACCGGTTTTCCCGGTAATCCGTATTTGCG (site TACACCGCTCG) | 0.0133
TGCACCGCATGGACCGGTTTTCCCGGTAATCCGTATTTGCG (site TCCACCGCTCG) | 0.0173
TGCACCGCATGGACCGGTTTTCCCGGTAATCCGTATTTGCG (site TGCACCGCTCG) | 0.0216
TGCACCGCATGGACCGGTTTTCCCGGTAATCCGTATTTGCG (site TTCACCGCTCG) | 0.00682
TGCAGCACATGGACCGGTTTTCCCGGTAATCCGTATTTGCG (site TGCAGCACTCG) | 0.686
TGCAGTGCATGGACCGGTTTTCCCGGTAATCCGTATTTGTA (site TGCAGTGCTTA) | 0.853
TGCATCCCATGGACCGGTTTTCCCGGTAATCCGTATTTGAA (site TGCATCCCTTT) | 0.335
TGCATTCCATGGACCGGTTTTCCCGGTAATCCGTATTTGTT (site TGCATTCCTAA) | 0
TGCCAGGCATGGACCGGTTTTCCCGGTAATCCGTATTTGTC (site TGCCAGGCTGA) | 0

Sequence | recombinant UMI read abundance (log10)
TGCCATTCATGGACCGGTTTTCCCGGTAATCCGTATTTGAT (site TGCCATTCTAT) | 0
TGCCCGGCATGGACCGGTTTTCCCGGTAATCCGTATTTGGC (site TGACCGGCTGC) | 0.0166
TGCCCGGCATGGACCGGTTTTCCCGGTAATCCGTATTTGGC (site TGCCCGGCTGC) | 0
TGCCCGGCATGGACCGGTTTTCCCGGTAATCCGTATTTGGC (site TGGCCGGCTGC) | 0
TGCCCGGCATGGACCGGTTTTCCCGGTAATCCGTATTTGGC (site TGTCCGGCTGC) | 0
TGCCGATCATGGACCGGTTTTCCCGGTAATCCGTATTTGCG (site TGCCGATCTCG) | 0.225
TGCCGTACATGGACCGGTTTTCCCGGTAATCCGTATTTGCT (site AGCCGTACTAG) | 0.792
TGCCGTACATGGACCGGTTTTCCCGGTAATCCGTATTTGCT (site CGCCGTACTAG) | 0.514
TGCCGTACATGGACCGGTTTTCCCGGTAATCCGTATTTGCT (site GGCCGTACTAG) | 0
TGCCGTACATGGACCGGTTTTCCCGGTAATCCGTATTTGCT (site TGCCGTACTAG) | 1.25
TGCGACACATGGACCGGTTTTCCCGGTAATCCGTATTTGGT (site TGCGACACTAC) | 0.00309
TGCGAGGCATGGACCGGTTTTCCCGGTAATCCGTATTTGGA (site TGCGAGGCTTC) | 0.00911
TGCGTTACATGGACCGGTTTTCCCGGTAATCCGTATTTGTT (site TGCGTTACTAA) | 0.237
TGCTAGGCATGGACCGGTTTTCCCGGTAATCCGTATTTGAT (site TGCTAGGCTAA) | 0.0172
TGCTAGGCATGGACCGGTTTTCCCGGTAATCCGTATTTGAT (site TGCTAGGCTAC) | 0.0154
TGCTAGGCATGGACCGGTTTTCCCGGTAATCCGTATTTGAT (site TGCTAGGCTAG) | 0
TGCTAGGCATGGACCGGTTTTCCCGGTAATCCGTATTTGAT (site TGCTAGGCTAT) | 0.326
TGCTATGCATGGACCGGTTTTCCCGGTAATCCGTATTTGGT (site TGCTAAGCTAC) | 0.0239
TGCTATGCATGGACCGGTTTTCCCGGTAATCCGTATTTGGT (site TGCTACGCTAC) | 0.0173
TGCTATGCATGGACCGGTTTTCCCGGTAATCCGTATTTGGT (site TGCTAGGCTAC) | 0.00428
TGCTATGCATGGACCGGTTTTCCCGGTAATCCGTATTTGGT (site TGCTATGCTAC) | 0.262
TGCTATTCATGGACCGGTTTTCCCGGTAATCCGTATTTGTA (site TGCTATTCTTA) | 1.33
TGCTCACCATGGACCGGTTTTCCCGGTAATCCGTATTTGTA (site TGCTCACCTTA) | 0.0115
TGCTGGGCATGGACCGGTTTTCCCGGTAATCCGTATTTGCC (site TGCTGGGCTGG) | 0.00658
TGCTTATCATGGACCGGTTTTCCCGGTAATCCGTATTTGTG (site TGCTTATCTCA) | 1

Sequence | recombinant UMI read abundance (log10)
TGCTTGCCATGGACCGGTTTTCCCGGTAATCCGTATTTGAA (site TGCTTGCCTTT) | 0.0149
TGGAAGACATGGACCGGTTTTCCCGGTAATCCGTATTTGCA (site AGGAAGACTTG) | 1.64
TGGAAGACATGGACCGGTTTTCCCGGTAATCCGTATTTGCA (site CGGAAGACTTG) | 1.44
TGGAAGACATGGACCGGTTTTCCCGGTAATCCGTATTTGCA (site GGGAAGACTTG) | 0
TGGAAGACATGGACCGGTTTTCCCGGTAATCCGTATTTGCA (site TGGAAGACTTG) | 2.67
TGGAAGTCATGGACCGGTTTTCCCGGTAATCCGTATTTGCA (site AGGAAGACTTG) | 0.00562
TGGAAGTCATGGACCGGTTTTCCCGGTAATCCGTATTTGCA (site TGGAAGTCTTG) | 3.25
TGGAATCCATGGACCGGTTTTCCCGGTAATCCGTATTTGTT (site AGGAATCCTAA) | 0
TGGAATCCATGGACCGGTTTTCCCGGTAATCCGTATTTGTT (site CGGAATCCTAA) | 0
TGGAATCCATGGACCGGTTTTCCCGGTAATCCGTATTTGTT (site GGGAATCCTAA) | 0
TGGAATCCATGGACCGGTTTTCCCGGTAATCCGTATTTGTT (site TGGAATCCTAA) | 0
TGGACGGCATGGACCGGTTTTCCCGGTAATCCGTATTTGGC (site TGGACGGCTGC) | 1.89
TGGACGGCATGGACCGGTTTTCCCGGTAATCCGTATTTGGC (site TGGCCGGCTGC) | 0.327
TGGACGGCATGGACCGGTTTTCCCGGTAATCCGTATTTGGC (site TGGGCGGCTGC) | 0
TGGACGGCATGGACCGGTTTTCCCGGTAATCCGTATTTGGC (site TGGTCGGCTGC) | 0.392
TGGACGTCATGGACCGGTTTTCCCGGTAATCCGTATTTGTT (site TGGACGTCTAA) | 0.483
TGGACTACATGGACCGGTTTTCCCGGTAATCCGTATTTGAC (site AGGACTACTGT) | 0
TGGACTACATGGACCGGTTTTCCCGGTAATCCGTATTTGAC (site CGGACTACTGT) | 0
TGGACTACATGGACCGGTTTTCCCGGTAATCCGTATTTGAC (site GGGACTACTGT) | 0
TGGACTACATGGACCGGTTTTCCCGGTAATCCGTATTTGAC (site TGGACTACTGT) | 1.55
TGGACTCCATGGACCGGTTTTCCCGGTAATCCGTATTTGTT (site CGGAATCCTAA) | 0
TGGACTCCATGGACCGGTTTTCCCGGTAATCCGTATTTGTT (site TGGACTCCTAA) | 0.214
TGGAGCTCATGGACCGGTTTTCCCGGTAATCCGTATTTGCG (site TGGAGCTCTCG) | 2.13
TGGATACCATGGACCGGTTTTCCCGGTAATCCGTATTTGCG (site TGGATACCTCG) | 0
TGGCCTTCATGGACCGGTTTTCCCGGTAATCCGTATTTGGT (site TAGCCTTCTAC) | 0
